Tests used:
Type in all cases: in vivo
Conditions in all cases: 250 g/ha, evaluated after 13 days
[1] = system: Ipomoea hederacea (IPOHE); test: Pre-emergence herbicide glasshouse test
Outline: (§1)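 Damage rated 13 days after spraying on a five-point scale (1=0–20% … 5=81–100%). Compound applied at 250 g/ha by default, as aqueous spray from acetone/water 50:50 plus 0.5% Tween 20, to pots one day post-sowing (pre) or after 8 days of growth (post). Plants kept at 24/16 °C, 14 h light, 65% humidity, watered twice daily.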

[2] = system: Amaranthus palmeri (AMAPA); test: Pre-emergence herbicide glasshouse test
Outline: as §1

[3] = system: Echinochloa crus-galli (ECHCG); test: Pre-emergence herbicide glasshouse test
Outline: as §1

[4] = system: Amaranthus retoflexus (AMARE); test: Pre-emergence herbicide glasshouse test
Outline: as §1

[5] = system: Ipomoea hederacea (IPOHE); test: Post-emergence herbicide glasshouse test
Outline: as §1

[6] = system: Amaranthus palmeri (AMAPA); test: Post-emergence herbicide glasshouse test
Outline: as §1

[7] = system: Echinochloa crus-galli (ECHCG); test: Post-emergence herbicide glasshouse test
Outline: as §1

[8] = system: Amaranthus retoflexus (AMARE); test: Post-emergence herbicide glasshouse test
Outline: as §1

Compound	percentage damage caused to the plant, IPOHE (five-point scale) [1]	percentage damage caused to the plant, AMAPA (five-point scale) [2]	percentage damage caused to the plant, ECHCG (five-point scale) [3]	percentage damage caused to the plant, AMARE (five-point scale) [4]	percentage damage caused to the plant, IPOHE (five-point scale) [5]	percentage damage caused to the plant, AMAPA (five-point scale) [6]	percentage damage caused to the plant, ECHCG (five-point scale) [7]	percentage damage caused to the plant, AMARE (five-point scale) [8]
Cc1cc(Cn2cc(C(F)(F)F)nc2-c2ccc(Cl)nc2)no1 [Compound 1.075]	5 (5=81-100%)	5 (5=81-100%)	5 (5=81-100%)	5 (5=81-100%)	5 (5=81-100%)	5 (5=81-100%)	5 (5=81-100%)	5 (5=81-100%)
FC(F)(F)c1cn(Cc2ccsn2)c(-c2ccc(Cl)nc2)n1 [Compound 1.077]	1 (1=0-20%)	5 (5=81-100%)	1 (1=0-20%)	5 (5=81-100%)	1 (1=0-20%)	4 (4=61-80%)	1 (1=0-20%)	4 (4=61-80%)
Cn1nc(Cn2cc(C(F)(F)F)nc2-c2ccc(Cl)nc2)cc1Cl [Compound 1.084]	5 (5=81-100%)	5 (5=81-100%)	3 (3=41-60%)	5 (5=81-100%)	4 (4=61-80%)	4 (4=61-80%)	1 (1=0-20%)	4 (4=61-80%)
CCn1nnc(Cn2cc(C(F)(F)F)nc2-c2ccc(Cl)nc2)n1 [Compound 1.086]	5 (5=81-100%)	5 (5=81-100%)	5 (5=81-100%)	5 (5=81-100%)	5 (5=81-100%)	5 (5=81-100%)	5 (5=81-100%)	5 (5=81-100%)
Cn1cnc(Cn2cc(C(F)(F)F)nc2-c2ccc(Cl)nc2)n1 [Compound 1.087]	5 (5=81-100%)	5 (5=81-100%)	5 (5=81-100%)	5 (5=81-100%)	5 (5=81-100%)	5 (5=81-100%)	5 (5=81-100%)	5 (5=81-100%)
CCc1nc(Cn2cc(C(F)(F)F)nc2-c2ccc(Cl)nc2)no1 [Compound 1.090]	5 (5=81-100%)	5 (5=81-100%)	4 (4=61-80%)	5 (5=81-100%)	5 (5=81-100%)	5 (5=81-100%)	4 (4=61-80%)	5 (5=81-100%)
CCc1cnc(Cn2cc(C(F)(F)F)nc2-c2ccc(Cl)nc2)o1 [Compound 1.092]	5 (5=81-100%)	5 (5=81-100%)	5 (5=81-100%)	5 (5=81-100%)	4 (4=61-80%)	4 (4=61-80%)	5 (5=81-100%)	4 (4=61-80%)
Cc1cnc(Cn2cc(C(F)(F)F)nc2-c2ccc(Cl)nc2)o1 [Compound 1.094]	4 (4=61-80%)	5 (5=81-100%)	5 (5=81-100%)	5 (5=81-100%)	3 (3=41-60%)	5 (5=81-100%)	4 (4=61-80%)	5 (5=81-100%)
Cc1coc(Cn2cc(C(F)(F)F)nc2-c2ccc(Cl)nc2)n1 [Compound 1.096]	5 (5=81-100%)	5 (5=81-100%)	5 (5=81-100%)	5 (5=81-100%)	3 (3=41-60%)	5 (5=81-100%)	4 (4=61-80%)	5 (5=81-100%)
Cc1nc(Cn2cc(C(F)(F)F)nc2-c2ccc(Cl)nc2)no1 [Compound 1.097]	5 (5=81-100%)	5 (5=81-100%)	5 (5=81-100%)	5 (5=81-100%)	5 (5=81-100%)	5 (5=81-100%)	5 (5=81-100%)	5 (5=81-100%)
CCc1noc(Cn2cc(C(F)(F)F)nc2-c2ccc(Cl)nc2)n1 [Compound 1.098]	4 (4=61-80%)	5 (5=81-100%)	1 (1=0-20%)	5 (5=81-100%)	3 (3=41-60%)	4 (4=61-80%)	1 (1=0-20%)	4 (4=61-80%)
CCn1cc(Cl)c(Cn2cc(C(F)(F)F)nc2-c2ccc(Cl)nc2)n1 [Compound 1.100]	1 (1=0-20%)	1 (1=0-20%)	1 (1=0-20%)	1 (1=0-20%)	1 (1=0-20%)	1 (1=0-20%)	1 (1=0-20%)	1 (1=0-20%)
Cc1noc(Cn2cc(C(F)(F)F)nc2-c2ccc(Cl)nc2)n1 [Compound 1.101]	5 (5=81-100%)	5 (5=81-100%)	1 (1=0-20%)	5 (5=81-100%)	5 (5=81-100%)	4 (4=61-80%)	1 (1=0-20%)	4 (4=61-80%)
Cn1nnc(Cn2cc(C(F)(F)F)nc2-c2ccc(Cl)nc2)n1 [Compound 1.109]	5 (5=81-100%)	5 (5=81-100%)	5 (5=81-100%)	5 (5=81-100%)	5 (5=81-100%)	5 (5=81-100%)	1 (1=0-20%)	5 (5=81-100%)
CCn1cc(Cn2cc(C(F)(F)F)nc2-c2ccc(Cl)nc2)nn1 [Compound 1.110]	5 (5=81-100%)	5 (5=81-100%)	3 (3=41-60%)	5 (5=81-100%)	4 (4=61-80%)	4 (4=61-80%)	1 (1=0-20%)	4 (4=61-80%)
FC(F)(F)c1cn(Cc2ccns2)c(-c2ccc(Cl)nc2)n1 [Compound 1.113]	1 (1=0-20%)	1 (1=0-20%)	1 (1=0-20%)	1 (1=0-20%)	1 (1=0-20%)	1 (1=0-20%)	1 (1=0-20%)	1 (1=0-20%)
